Experimental data: patent USRE39707E1, “Camptothecin derivatives” (Catholic Healthcare West, priority 2001, dated 2007)

Columns and labels:
HCT116 = assay: Cell colony formation assay, HCT116 cells; type: cell-based, human; conditions: 72 hours drug exposure
Protocol: (§1) This example provides directions for growing cells and testing compounds of the invention for their effect on the growth of the cells. All cells were purchased from DCIDC Tumor Repository, NCI, NIH.
The cells were incubated in a CO2 incubator at 37° C. for 5 hours for attachment to the bottom of Petri dishes. Drugs were made fresh in medium at ten times the final concentration, and then 0.3 ml of this stock solution was added to the 2.7 ml of medium in the dish. The cells were then incubated with drugs for 72 hours at 37° C. At the end of the incubation the drug-containing media were decanted, the dishes were rinsed with 4 ml of Hank's Balance Salt Solution (HBSS), 5 ml of fresh medium was added, and the dishes were returned to the incubator for colony formation. The cell colonies were counted using colony counter after incubation for 7 days for HCT116 cells and PC-3 cells and 8 days for VM46 cells, respectively.

PC-3 = assay: Cell colony formation assay, PC-3 cells; type: cell-based, human; conditions: 72 hours drug exposure
Protocol: as §1
(§2) Four hundred cells (HCT 116, PC-3, NCI/ADR-RES: human breast cancer cells) or five hundred cells (VM46) were plated in 60 mm Petri dishes containing 2.7 ml of medium (modified McCoy's 5a medium) containing 10% fetal bovine serum and 100 units/ml penicillin and […] streptomycin. The cells were incubated in a CO2 incubator at 37° C. for 5 hours for attachment to the bottom of Petri dishes. Drugs were made fresh in medium at ten times the final concentration, and then 0.3 ml of this stock solution was added to the 2.7 ml of medium in the dish. The cells were then incubated with drugs for 72 hours at 37° C. At the end of the incubation the drug-containing media were decanted, the dishes were rinsed with 4 ml of Hank's Balance Salt Solution (HBSS), 5 ml of fresh medium was added, and the dishes were returned to the incubator for colony formation. The cell colonies were counted using colony counter after incubation for 7 days for HCT116 cells and PC-3 cells and 8 days for VM46 cells, respectively.
(§3) Values of ID50 (the drug concentration producing 50% inhibition of colony formation) may be determined for each tested compound. The directions described in this example may be used in other cells, such as DU-145.

[1] = test system: MTG-B mouse mammary Adenocarcinoma; assay: In vivo efficacy in C3H/HeJ mice bearing MTG-B tumors; conditions: for T (Surviving days after treatment of MTG-B mouse mammary Adenocarcinoma In C3H/Hej mice): i.p., control mice survived 6 days; for CD/Taxol: ratio of extra days of survival with compound to extra days of survival with taxol, each compared to control; for T/C %: surviving days treated / surviving days control x 100%, control 6 days
Protocol: This example provides directions for performing in vivo efficacy tests of the compounds of the invention on C3H/HeJ mice bearing MTG-B tumors.
Studies on the compounds of this invention were performed on C3H/HeJ mice bearing […] tumors. […] Treatment was initiated at that time, with the first day of treatment designated as day 0 for calculation and plots. The mice were injected i.p. with thee drug dose levels (⅓, ½, 1×MTD) using both a single injection and the schedule of Q2D×3 (every 2 days for a total of 3 treatments at ⅓ MTD). Control groups of mice bearing 8 mm diameter tumors were treated with vehicle alone. […] When a tumor reached 1.5 g, the mouse bearing the tumor was euthanized. Surviving days measured from day 0 for mice treated with anticancer drugs (T) and surviving days measured from day 0 for control mice (C) were recorded. Tumor growth inhibition values (T/C %) were calculated using the formula T/C %=(surviving days of mice treated with an anticancer drug T/surviving days of control mice C)×100%, as shown in Table II.
The final right-hand column in Table II provides a ratio of the extra days of survival of mice treated with the compounds of the invention (compared to control) to the extra days of survival of mice treated with taxol (compared to control).

VM46 = assay: Cell colony formation assay, VM46 cells; type: cell-based; conditions: 72 hours drug exposure
Protocol: as §1, §2, §3

C3H/HeJ mice = conditions: maximum tolerated dose at day 40, C3H/HeJ mice
Protocol: This example provides directions for performing in vivo toxicity tests of the compounds of the invention on C3H/HeJ mice.
Acute toxicities of the compounds of this invention are evaluated on C3H/HeJ mice (body weight 18-22 g). The MTD40 (maximum tolerated dose at day 40) values were determined by the standard procedure described by Gad and Chengelis (see, for example, “Acute Toxicology Testing,” 2nd Ed., Shayne O. Gad and Christopher P. Chengelis, pp. 186-195 (Academic Press)). In the consecutive type studies, 2 mice were dosed at low and moderate doses of 40 and 100 mg/kg. If no severe and irreversible toxicity (euthanasia is required) occurs at these doses, a new pair of animals was initiated at 180 mg/kg, which is 1.8 times higher than 100 mg/kg. Sequential dosages (about 3 doses on 3 pairs of animals, i.e. 2 mice for each drug dose) were increased by a factor of 1.8 until severe and irreversible toxicity (euthanasia is required) occurred. Then another pair of animals was initiated at the highest nonlethal dosage, and successive dosages were increased by a factor of 1.15. The result of this exercise was two dosages, one apparently nonlethal and the other lethal if severe and irreversible toxicity occurs and euthanasia is required, separated by a factor of 1.15. Six mice were dosed at each dosage. If no severe and irreversible toxicity occurred at the lower dosage and at least one with severe and irreversible toxicity occurred at the higher dose, then the lower dose was considered to be the MTD. The compounds of this invention were administered to C3H/HeJ mice by intraperitoneal injection. Drug toxicity was evaluated on mice checked daily for 45 days.

Row | SMILES | In Vitro Efficacy: Survival (%) of HCT116 (HCT116; 1 nM) | In Vitro Efficacy: Survival (%) of HCT116 (HCT116; 10 nM) | In Vitro Efficacy: Survival (%) of HCT116 (HCT116; 100 nM) | In vitro efficacy: Survival (%) of cells line PC-3 (PC-3; 1 nM) | In vitro efficacy: Survival (%) of cells line PC-3 (PC-3; 5 nM) | T (Surviving days after treatment of MTG-B mouse mammary Adenocarcinoma In C3H/Hej mice) [1] | CD/Taxol [1] | T/C % [1] | In vitro efficacy: Survival (%) of cells line VM46 (VM46; 1 nM) | In vitro efficacy: Survival (%) of cells line VM46 (VM46; 10 nM) | In Vivo Toxicity MTD40 (ip, mg/kg) in C3H/Hej Mice (C3H/HeJ mice)
1 | CCC1(OC(=O)COc2ccc(F)cc2)C(=O)OCc2c1cc1n(c2=O)Cc2cc3ccccc3nc2-1 (stereo not shown) [Example 000417, camptothecin-20-O-4-fluorophenoxyacetate] | 100% | 0% | 0% | 97.65% | 61.85% | 18 days | 4 | 300% | 83.50% | 0% | >150 mg/kg
2 | CCC1(OC(=O)COc2ccc3c(c2)OCO3)C(=O)OCc2c1cc1n(c2=O)Cc2cc3ccccc3nc2-1 (stereo not shown) [Example 000419, Camptothecin-20-O-ester of 3,4-methylenedioxyphenoxyacetic acid] | 100% | 0% | 0% | 88.43% | 43.94% | 12 days | 2.0 | 200% | 75.46% | 0% | 45 mg/kg
3 | CC[C@@]1(OC(=O)CO[C@@H]2C[C@H](C)CC[C@H]2C(C)C)C(=O)OCc2c1cc1n(c2=O)Cc2cc3ccccc3nc2-1 [Example 0002031, Camptothecin-20-O-ester of (−)-menthoxyacetic acid] | 100% | 0% | 0% | 100% | 69.44% | 12 days | 2.0 | 200% | 74.84% | 0% | 100 mg/kg
4 | CC(=O)O[C@H]1C(=O)[C@@]2(C)[C@H]([C@H](OC(=O)c3ccccc3)[C@]3(O)C[C@H](OC(=O)[C@H](O)[C@@H](NC(=O)c4ccccc4)c4ccccc4)C(C)=C1C3(C)C)[C@]1(OC(C)=O)CO[C@@H]1C[C@@H]2O [Taxol, reference compound] | 86.40% | 0% | 0% | 82.80% | 41.36% | 9 days | – | 150% | 80.59% | 70.82% | 40.6 mg/kg
